From US20240269151A1, “NASAL SLEEP FORMULATION” (CS MEDICA A/S, priority 2021, published 2024)

Assay: Comparison of nasal sleep compositions formulated with type A or type B crystalline CBD
Format: in vivo
Settings: nasal sleep compositions differing only in the crystalline CBD used
Description: Two nasal sleep compositions are prepared as disclosed herein, such as according to Example 1, 5 and/or 7, the only difference being that the crystalline CBD used in the formulation is either of type A (needle-like crystals; FIG. 1) or type B (bunch/cluster-like; FIG. 2).
Type A crystalline CBD is sourced from Enecta, while type B CBD is sourced from Pharma Hemp. Further details can e.g. be found in the first aspect of the invention, such as Table 1.

For `C=C(C)[C@@H]1CCC(C)=C[C@H]1c1c(O)cc(CCCCC)cc1O` [type A CBD, Cannabidiol], which “Activity/potency of type A CBD versus type B CBD” value is on record?
Its value is “significantly more active than type B CBD”.

And the “Activity/potency of type A CBD versus type B CBD” value (listed as CBD with a needle-like crystal structure)?
The value was “significantly more potent than CBD with a different crystal structure”.
